Experimental data taken from ChEMBL document CHEMBL1201862, “PubChem BioAssay data set” (2004).
Active and inactive are the calls of the source.

Legend:
[1] = NIH-3T3 fibroblast cytotoxicity, dose response, cytotoxicity control, cell-based, fluorescence, Alamar Blue, secondary assay (AID 2327); type: functional;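 further: NIH-3T3 mouse fibroblasts cultured with fluconazole at 8 µg/mL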
[2] = Luminescence Cell-Based Dose Retest to Confirm Inhibitors of Cancer Stem Cells. [Related pubchem assays (depositor defined):AID2717, AID2721]; type: functional; details: Homo sapiens
[3] = C. albicans growth with fluconazole, confirmation, fluorescence, retest (AID 2467); type: functional, cell-based
Leucine aminopeptidase = target: T1, Leucine aminopeptidase (Plasmodium falciparum 3D7, UniProt Q8IL11); experiment: P. falciparum M17LAP inhibitors, primary screen, biochemical, fluorogenic H-Leu-NHMec substrate, 1536-well (AID 1619); type: functional
T1 sequence (Q8IL11 whole entry): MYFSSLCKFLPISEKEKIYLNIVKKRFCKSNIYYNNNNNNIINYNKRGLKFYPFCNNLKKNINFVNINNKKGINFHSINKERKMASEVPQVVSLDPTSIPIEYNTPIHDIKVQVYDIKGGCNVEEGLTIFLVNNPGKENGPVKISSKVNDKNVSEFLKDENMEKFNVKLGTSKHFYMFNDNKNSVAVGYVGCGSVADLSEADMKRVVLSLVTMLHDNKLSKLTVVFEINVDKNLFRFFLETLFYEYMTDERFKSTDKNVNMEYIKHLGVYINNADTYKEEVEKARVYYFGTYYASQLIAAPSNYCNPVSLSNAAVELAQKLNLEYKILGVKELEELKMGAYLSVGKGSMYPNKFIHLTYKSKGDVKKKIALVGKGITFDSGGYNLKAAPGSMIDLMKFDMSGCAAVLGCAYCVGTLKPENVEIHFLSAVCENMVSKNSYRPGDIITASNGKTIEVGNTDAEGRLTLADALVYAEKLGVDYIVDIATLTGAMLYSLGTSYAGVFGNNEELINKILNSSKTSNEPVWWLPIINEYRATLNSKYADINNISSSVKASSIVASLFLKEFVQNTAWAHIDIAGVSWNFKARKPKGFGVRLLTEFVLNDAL

Cytochrome P450 3A4 = Cytochrome P450 3A4 (Homo sapiens, UniProt P08684);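 further: CYP3A4 tested as one member of a cytochrome P450 panel screen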
Cytochrome P450 2D6 = Cytochrome P450 2D6 (Homo sapiens, UniProt P10635);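 further: CYP2D6 member of a cytochrome P450 panel assay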
[4] = target: T2, Calpain-2 catalytic subunit (Sus scrofa, UniProt P43367); experiment: pig calpain II inhibitor potency, dose response, biochemical, fluorogenic peptide substrate (AID 1420); type: functional
T2 sequence (P43367 whole entry): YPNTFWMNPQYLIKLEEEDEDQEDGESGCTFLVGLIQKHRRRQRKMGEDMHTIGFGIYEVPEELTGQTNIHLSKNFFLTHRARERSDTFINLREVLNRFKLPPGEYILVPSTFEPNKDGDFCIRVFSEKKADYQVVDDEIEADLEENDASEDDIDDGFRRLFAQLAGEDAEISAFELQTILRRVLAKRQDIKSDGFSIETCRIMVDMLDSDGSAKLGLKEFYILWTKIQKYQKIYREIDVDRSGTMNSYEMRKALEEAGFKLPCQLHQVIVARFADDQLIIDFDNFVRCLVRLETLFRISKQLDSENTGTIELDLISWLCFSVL

Cytochrome P450 2C9 = Cytochrome P450 2C9 (Homo sapiens, UniProt P11712)
Cytochrome P450 1A2 = target: T3, Cytochrome P450 1A2 (Homo sapiens, UniProt P05177);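 further: PubChem cytochrome P450 panel assay, CYP1A2 panel member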
T3 sequence (P05177 whole entry): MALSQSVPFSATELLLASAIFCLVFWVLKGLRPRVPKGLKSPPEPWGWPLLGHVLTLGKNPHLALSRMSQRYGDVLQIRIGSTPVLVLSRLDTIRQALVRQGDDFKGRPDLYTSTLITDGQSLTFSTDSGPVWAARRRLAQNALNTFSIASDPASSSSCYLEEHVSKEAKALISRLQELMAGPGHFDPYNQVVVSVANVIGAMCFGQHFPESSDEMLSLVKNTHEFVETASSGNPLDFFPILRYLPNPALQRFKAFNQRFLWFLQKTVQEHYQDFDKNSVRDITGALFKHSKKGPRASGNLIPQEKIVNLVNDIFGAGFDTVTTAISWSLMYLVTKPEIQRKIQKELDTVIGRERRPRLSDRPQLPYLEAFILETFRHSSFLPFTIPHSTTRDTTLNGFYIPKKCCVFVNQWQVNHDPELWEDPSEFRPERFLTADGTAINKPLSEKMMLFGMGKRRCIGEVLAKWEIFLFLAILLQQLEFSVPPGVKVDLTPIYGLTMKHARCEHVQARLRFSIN

INS1 = experiment: beta cell apoptosis inhibitors, cytokine rescue, dose response, luminescence, retest (AID 449756); type: functional, cell-based; details: Rattus norvegicus;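 further: cell death triggered by IL-1 beta plus TNF-alpha plus IFN-gamma mixture; protective hits raise ATP signal compared with cytokine alone wells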
[5] = Shn3 3'UTR reporter inhibitors, dose response, cell-based, Clone20 osteoblasts, firefly luciferase, cherry-picked (AID 624132); type: functional;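 further: firefly luciferase luminescence from reporter carrying the Shn3 3'UTR in osteoblasts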
[6] = test system: Streptococcus sp. 'group A'; experiment: growth inhibition of control SK(-) GAS strain, dose response, counter-screen for streptokinase expression inhibitor project, luminescence, kanamycin, BacTiterGlo, confirmation (AID 1900); type: functional, organism-based
Streptococcus = experiment: Group A Streptococcus viability loss, dose response, counter-screen for streptokinase expression inhibitor project, luminescence, BacTiterGlo (AID 1915); type: functional, organism-based;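 further: potency for reduction of bacterial viability or growth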
Streptokinase A = target: T4, Streptokinase A (Streptococcus pyogenes serotype M1, UniProt P10520); experiment: S. pyogenes streptokinase expression inhibitors, potency, dose response, plasminogen activation absorbance, OD405 (AID 1914); type: functional, Streptococcus pyogenes M1 GAS;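 further: secreted streptokinase activity via plasminogen activation per viability signal from cell pellet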
T4 sequence (P10520 whole entry): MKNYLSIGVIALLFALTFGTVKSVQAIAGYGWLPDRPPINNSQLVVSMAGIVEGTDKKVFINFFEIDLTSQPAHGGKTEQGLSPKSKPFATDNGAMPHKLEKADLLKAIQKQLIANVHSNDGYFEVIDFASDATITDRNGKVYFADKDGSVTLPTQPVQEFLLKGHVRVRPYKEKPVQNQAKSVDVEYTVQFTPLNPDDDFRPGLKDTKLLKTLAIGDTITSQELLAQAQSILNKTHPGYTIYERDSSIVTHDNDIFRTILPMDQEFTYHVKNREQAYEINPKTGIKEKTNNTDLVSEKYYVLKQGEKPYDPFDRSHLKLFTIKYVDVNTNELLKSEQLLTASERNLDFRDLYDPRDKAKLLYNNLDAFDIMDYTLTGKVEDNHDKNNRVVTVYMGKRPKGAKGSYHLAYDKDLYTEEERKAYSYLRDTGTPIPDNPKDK

[7] = target: T5, Heat shock factor protein 1 (Mus musculus, UniProt P38532); experiment: HSF1 potentiators in luciferase reporter cells, confirmation, cell-based, NIH3T3, luminescence, dose retest (AID 435004); type: functional;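 further: stress induced by proteasome inhibitor MG132 added 30 min after compound; luciferase reporter driven by HSF1 response element in NIH3T3 cells; actives raise luminescence as potentiators of the MG132 stress response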
T5 sequence (P38532 whole entry): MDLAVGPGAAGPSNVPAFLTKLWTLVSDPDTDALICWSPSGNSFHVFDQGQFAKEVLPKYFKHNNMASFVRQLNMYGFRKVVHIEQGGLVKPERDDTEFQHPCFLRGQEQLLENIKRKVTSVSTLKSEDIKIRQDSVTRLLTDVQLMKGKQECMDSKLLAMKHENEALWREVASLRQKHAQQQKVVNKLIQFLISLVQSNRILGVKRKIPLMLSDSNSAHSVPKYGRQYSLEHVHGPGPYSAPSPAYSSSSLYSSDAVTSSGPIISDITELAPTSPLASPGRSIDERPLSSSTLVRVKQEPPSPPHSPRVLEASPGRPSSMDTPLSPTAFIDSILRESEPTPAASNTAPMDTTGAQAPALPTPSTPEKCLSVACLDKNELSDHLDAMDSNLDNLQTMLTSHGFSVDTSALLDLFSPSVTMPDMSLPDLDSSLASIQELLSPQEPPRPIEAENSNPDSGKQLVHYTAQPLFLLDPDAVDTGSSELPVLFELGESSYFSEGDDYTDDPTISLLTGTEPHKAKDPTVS

[8] = P. falciparum Dd2 growth inhibitors, dose response, SYBR Green, cherry-picked samples (AID 1159567); type: functional, cell-based

Cytochrome P450 2D6, sequence (P10635 whole entry): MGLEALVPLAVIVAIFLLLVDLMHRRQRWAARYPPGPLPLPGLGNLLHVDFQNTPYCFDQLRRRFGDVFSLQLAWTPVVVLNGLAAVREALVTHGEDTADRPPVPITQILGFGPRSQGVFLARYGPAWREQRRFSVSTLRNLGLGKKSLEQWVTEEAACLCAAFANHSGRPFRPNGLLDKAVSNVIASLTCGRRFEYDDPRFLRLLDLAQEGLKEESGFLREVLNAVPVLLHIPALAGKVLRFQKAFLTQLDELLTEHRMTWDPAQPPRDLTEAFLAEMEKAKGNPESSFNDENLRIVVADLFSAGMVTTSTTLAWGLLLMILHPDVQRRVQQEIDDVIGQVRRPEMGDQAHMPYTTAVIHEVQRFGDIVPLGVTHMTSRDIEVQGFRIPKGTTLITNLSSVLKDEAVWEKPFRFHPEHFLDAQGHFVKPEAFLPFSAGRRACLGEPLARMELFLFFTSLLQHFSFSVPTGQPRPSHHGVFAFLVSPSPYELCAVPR
Cytochrome P450 2C9, sequence (P11712 whole entry): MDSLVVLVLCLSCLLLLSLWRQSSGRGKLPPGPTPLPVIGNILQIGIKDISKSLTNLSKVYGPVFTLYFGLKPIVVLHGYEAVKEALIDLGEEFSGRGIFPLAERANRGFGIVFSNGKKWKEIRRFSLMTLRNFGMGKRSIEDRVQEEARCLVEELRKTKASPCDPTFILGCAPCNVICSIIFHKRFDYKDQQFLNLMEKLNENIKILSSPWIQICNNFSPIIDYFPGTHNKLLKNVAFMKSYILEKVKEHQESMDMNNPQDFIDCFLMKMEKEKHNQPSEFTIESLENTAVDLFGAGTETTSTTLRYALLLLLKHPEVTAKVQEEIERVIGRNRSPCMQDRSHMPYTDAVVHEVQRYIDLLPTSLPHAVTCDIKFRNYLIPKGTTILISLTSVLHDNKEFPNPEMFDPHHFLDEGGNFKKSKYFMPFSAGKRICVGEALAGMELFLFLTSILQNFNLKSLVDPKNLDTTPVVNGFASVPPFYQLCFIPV
Cytochrome P450 3A4, sequence (P08684 whole entry): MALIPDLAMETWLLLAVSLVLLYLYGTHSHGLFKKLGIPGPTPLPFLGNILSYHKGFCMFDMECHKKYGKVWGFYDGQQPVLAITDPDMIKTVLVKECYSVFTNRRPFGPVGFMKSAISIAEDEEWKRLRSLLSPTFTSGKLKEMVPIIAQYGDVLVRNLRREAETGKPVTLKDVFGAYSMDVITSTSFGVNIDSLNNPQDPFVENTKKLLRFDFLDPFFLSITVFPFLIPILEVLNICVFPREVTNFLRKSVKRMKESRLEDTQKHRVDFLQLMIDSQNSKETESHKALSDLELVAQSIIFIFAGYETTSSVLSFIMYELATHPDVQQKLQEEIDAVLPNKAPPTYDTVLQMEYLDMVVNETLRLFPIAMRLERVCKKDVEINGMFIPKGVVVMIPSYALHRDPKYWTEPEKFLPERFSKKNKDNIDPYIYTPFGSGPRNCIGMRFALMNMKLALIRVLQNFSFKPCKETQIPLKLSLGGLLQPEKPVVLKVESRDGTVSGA

NCC(c1ccc(Cl)cc1Cl)c1c[nH]c2ccccc12 (stereo not drawn)
EC50 [1]: 26.2 µM (active) | AC50 [2]: 8.89 µM (active) | EC50 [3]: > 38 µM (not active)

Cc1ccc(S(=O)(=O)NC(=O)CSc2nc3ccccc3s2)cc1
IC50 (Leucine aminopeptidase): 7.77 µM (active) | AC50 (Cytochrome P450 3A4): 14.1 µM (inconclusive)

O=C(Nc1ccc(C(=O)O)cc1)Nc1cccc([N+](=O)[O-])c1
IC50 (Leucine aminopeptidase): 16.1 µM (active)

COc1ccc2[nH]cc(CCNc3ccnc(-c4ccc(C(=O)N(C)C)cc4)n3)c2c1
AC50 (Cytochrome P450 2D6): 25.1 µM (inconclusive)

CC(C)(C)OC(=O)NCCCC[C@H](NC(=O)c1nc[nH]c1C(=O)N[C@@H](CCCCNC(=O)OC(C)(C)C)C(=O)OC(C)(C)C)C(=O)OC(C)(C)C
IC50 [4]: 3.89 µM (not active)

CN=C(S)NNC(=O)c1ccccc1F
IC50 [4]: 17.7 µM (not active)

C=CCn1c(SCC(=O)c2ccc(NS(=O)(=O)c3ccccc3)cc2)nnc1-c1cccs1
IC50 (Leucine aminopeptidase): 14.7 µM (active)

CCOC(=O)c1ccccc1NC(=O)c1cccc([N+](=O)[O-])c1
EC50 [1]: > 150 µM (inactive) | EC50 [3]: > 38 µM (not active)

CN(C)c1ccc(-c2nc(Nc3ccncc3)c3ccccc3n2)cc1
AC50 (Cytochrome P450 2C9): 0.794 µM (inconclusive) | AC50 (Cytochrome P450 2D6): 25.1 µM (inconclusive)

O=C(CSc1nc[nH]n1)N1N=C2/C(=C/c3ccco3)CCCC2C1c1ccco1 (stereo not drawn)
IC50 (Leucine aminopeptidase): 2.11 µM (active)

Cc1ccc(Nc2nc(-c3sc(NC(=O)c4ccc([N+](=O)[O-])cc4)nc3C)cs2)cc1
AC50 (Cytochrome P450 1A2): 2.24 µM (inconclusive) | AC50 (Cytochrome P450 2D6): 0.01 µM (inconclusive)

O=C(Oc1c(CN2CCOCC2)cc(Cl)c2cccnc12)c1ccccc1
EC50 [1]: > 150 µM (inactive) | EC50 [3]: 3.71 µM (active) | AC50 (INS1): 4.16 µM (active)

CCN(CC)C(=S)Sc1c(O)nc2ccc(Cl)cc2c1-c1ccccc1
AC50 [5]: 27 µM (active) | EC50 [6]: 0.831 µM (active) | EC50 (Streptococcus): 1.8 µM (active)

CN(C)c1ccc(-c2nc(NC3CCNCC3)c3ccccc3n2)cc1
AC50 (Cytochrome P450 2D6): 39.8 µM (inconclusive) | AC50 (Cytochrome P450 3A4): 31.6 µM (inconclusive)

COc1ccccc1NC(=O)CSc1nc[nH]n1
IC50 (Leucine aminopeptidase): 36.8 µM (active)

Cc1cc(C)c(C(=O)COC(=O)CCNS(=O)(=O)c2c(Cl)cccc2Cl)cc1C
IC50 [4]: 4.97 µM (not active)

Cn1c(N)c(C(=O)COC(=O)CCC2CCCCC2)c(=O)n(C)c1=O
IC50 [4]: 5.23 µM (active)

CCCCC(CC)C(=O)Oc1ccc(O)c(C(C)(C)C)c1 (stereo not drawn)
IC50 [4]: 13.5 µM (not active) | EC50 [6]: 3.2 µM (active) | EC50 (Streptokinase A): 4.96 µM (active) | EC50 (Streptococcus): 7.84 µM (active)

CCOc1ccc(NC(=O)C2CC(C)=C(C)CC2C(=O)O)cc1 (stereo not drawn)
IC50 (Leucine aminopeptidase): 21.3 µM (active)

COc1cc(N/C=C(\C(C)=O)c2ccccc2)cc(OC)c1
IC50 [4]: > 50 µM (not active)

CCCn1c(N)c(C(=O)COC(=O)c2c(C)noc2C)c(=O)n(C)c1=O
EC50 [1]: > 150 µM (inactive) | EC50 [3]: > 38 µM (not active)

COC(=O)c1c(C(=O)OC)c(-c2ccc(Cl)c(Cl)c2)n2c1CCC2
EC50 [1]: > 160 µM (inactive) | EC50 [3]: > 38 µM (not active)

O=C(NCCc1c[nH]c2ccccc12)OCCSS(=O)(=O)O
IC50 (Leucine aminopeptidase): 21.8 µM (active)

Cc1nc(Nc2ccccc2)sc1C(=O)c1ccccc1
IC50 [4]: 3.41 µM (not active)

O=C1CCC(c2ccccc2)=NN1c1nc2ccccc2s1
AC50 (Cytochrome P450 2C9): 3.98 µM (inconclusive) | AC50 (Cytochrome P450 2D6): 3.98 µM (inconclusive)

COc1ccc(CNc2nc(-c3ccc4c(c3)OCO4)nc3ccccc23)c(OC)c1
AC50 (Cytochrome P450 2C9): 0.501 µM (inconclusive) | AC50 (Cytochrome P450 2D6): 12.6 µM (inconclusive)

COc1ccc(NC(=O)CN2C(=O)C(C)SC(C)C2=O)cc1 (stereo not drawn)
IC50 (Leucine aminopeptidase): 12.2 µM (active)

S=C(NCc1ccco1)N/N=C/c1ccc(Cl)cc1
EC50 [7]: > 260 µM (inactive) | IC50 [4]: 6.94 µM (not active)

O=C(N/N=C\c1cccc(Br)c1)c1ccccc1-n1cccc1
IC50 [4]: > 50 µM (not active)

CO[C@H]1CN(C)C(=O)c2ccc(NC(=O)Nc3cc(F)ccc3F)cc2OC[C@@H](C)N(C)C[C@H]1C
AC50 [8]: 11.4 µM (active)

C[C@H](CO)N1C[C@H](C)[C@H](CN(C)S(=O)(=O)c2ccccc2F)OCc2ccccc2-c2c(n(C)c3ccccc23)C1=O
AC50 [8]: 3.61 µM (active)

C[C@H]1CN([C@@H](C)CO)S(=O)(=O)c2ccc(C#Cc3ccncc3)cc2O[C@H]1CN(C)S(=O)(=O)c1ccc(F)cc1
AC50 [8]: 4.11 µM (active)

COc1ccc2c3c([nH]c2c1)[C@@H](CO)N(Cc1cccc(F)c1)CC31CCN(C(C)=O)CC1
AC50 [8]: 5.78 µM (active)

COc1ccc(S(=O)(=O)N(C)C[C@H]2Oc3c(NC(=O)Nc4ccc5c(c4)OCO5)cccc3C(=O)N([C@@H](C)CO)C[C@H]2C)cc1
AC50 [8]: 4.41 µM (active)
